Reference: US8524718B2, “Heteroaromatic derivatives and their use as positive allosteric modulators of metabotropic glutamate receptors” (Addex Pharma S.A., priority 2007, dated 2013)

Molecular target: T1, recombinant human mGluR4a receptors (Homo sapiens, UniProt Q14833)
T1 construct: expressed in transfected cells
Experiment: mGluR4 assay on HEK-expressing human mGluR4 (fluorescent cell based Ca2+ mobilization assay, FLIPR)
Conditions: HEK-293 cells expressing hmGluR4; enhancement of EC25 glutamate response; mean of at least three independent experiments in duplicate; read-out: Ca^2+ Flux (mean EC50)
Source text: mGluR4 Assay on HEK-Expressing Human mGluR4 The compounds of the present invention are positive allosteric modulators of mGluR4 receptor. Their activity was examined on recombinant human mGluR4a receptors by detecting changes in intracellular Ca^2+ concentration, using the fluorescent Ca^2+-sensitive dye Fluo-4-(AM) and a Fluorometric Imaging Plate Reader (FLIPR, Molecular Devices, Sunnyvale, Calif.) The cDNA encoding the human metabotropic glutamate receptor (hmGluR4), (accession number NM_000841.1, NCBI Nucleotide database browser), was subcloned into an expression vector containing also the hygromycin resistance gene. In parallel, the cDNA encoding a G protein allowing redirection of the activation signal to intracellular calcium flux was subcloned into a different expression vector containing also the puromycin resistance gene. Transfection of both these vectors into HEK293 cells with PolyFect reagent (Qiagen) according to supplier's protocol, and hygromycin and puromycin treatment allowed selection of antibiotic resistant cells which had integrated stably one or more copies of the plasmids. Positive cellular clones expressing hmGluR4 were identified in a functional assay measuring changes in calcium fluxes in response to glutamate or selective known mGluR4 orthosteric agonists and antagonists. HEK-293 cells expressing hmGluR4 were maintained in media containing DMEM, dialyzed Fetal Calf Serum (10%), Glutamax™ (2 mM), Penicillin (100 units/mL), Streptomycin (100 μg/mL), Geneticin (100 μg/mL) and Hygromycin-B (40 μg/mL) and puromycin (1 μg/mL) at 37° C./5% CO2. Human mGluR4 HEK-293 cells were plated out 24 hours prior to FLIPR^384 assay in black-walled, clear-bottomed, poly-L-ornithine-coated 384-well plates at a density of 25,000 cells/well in a glutamine/glutamate free DMEM medium containing foetal bovine serum (10%), penicillin (100 units/mL) and streptomycin (100 μg/mL) at 37 C/5% CO2. On the day of the assay, the medium was aspirated and the cells were loaded with a 3 μM solution of Fluo-4-AM (LuBioScience, Lucerne, Switzerland) in 0.03% pluronic acid. After 1 hour at 37 C/5% CO2, the non incorporated dye was removed by washing cell plate with the assay buffer and the cells were left in the dark at room temperature for six hours before testing. All assays were performed in a pH 7.4 buffered-solution containing 20 mM HEPES, 143 mM NaCl, 6 mM KCl, 1 mM MgSO4, 1 mM CaCl2, 0.125 mM sulfapyrazone, 0.1% glucose. After 10 s of basal fluorescence recording, various concentrations of the compounds of the invention were added to the cells. Changes in fluorescence levels were first monitored for 180 s in order to detect any agonist activity of the compounds. Then the cells were stimulated by an EC25 glutamate concentration for an additional 110 s in order to measure enhancing activities of the compounds of the invention. EC25 glutamate concentration is the concentration giving 25% of the maximal glutamate response. The concentration-response curves of representative compounds of the present invention were generated using the Prism GraphPad software (Graph Pad Inc, San Diego, USA). The curves were fitted to a four-parameter logistic equation: (Y=Bottom+(Top−Bottom)/(1+10^((Log EC50−X)*Hill Slope) allowing the determination of EC50 values. The Table 5 below represents the mean EC50 obtained from at least three independent experiments of selected molecules performed in duplicate.

T1 sequence (Q14833 33-912): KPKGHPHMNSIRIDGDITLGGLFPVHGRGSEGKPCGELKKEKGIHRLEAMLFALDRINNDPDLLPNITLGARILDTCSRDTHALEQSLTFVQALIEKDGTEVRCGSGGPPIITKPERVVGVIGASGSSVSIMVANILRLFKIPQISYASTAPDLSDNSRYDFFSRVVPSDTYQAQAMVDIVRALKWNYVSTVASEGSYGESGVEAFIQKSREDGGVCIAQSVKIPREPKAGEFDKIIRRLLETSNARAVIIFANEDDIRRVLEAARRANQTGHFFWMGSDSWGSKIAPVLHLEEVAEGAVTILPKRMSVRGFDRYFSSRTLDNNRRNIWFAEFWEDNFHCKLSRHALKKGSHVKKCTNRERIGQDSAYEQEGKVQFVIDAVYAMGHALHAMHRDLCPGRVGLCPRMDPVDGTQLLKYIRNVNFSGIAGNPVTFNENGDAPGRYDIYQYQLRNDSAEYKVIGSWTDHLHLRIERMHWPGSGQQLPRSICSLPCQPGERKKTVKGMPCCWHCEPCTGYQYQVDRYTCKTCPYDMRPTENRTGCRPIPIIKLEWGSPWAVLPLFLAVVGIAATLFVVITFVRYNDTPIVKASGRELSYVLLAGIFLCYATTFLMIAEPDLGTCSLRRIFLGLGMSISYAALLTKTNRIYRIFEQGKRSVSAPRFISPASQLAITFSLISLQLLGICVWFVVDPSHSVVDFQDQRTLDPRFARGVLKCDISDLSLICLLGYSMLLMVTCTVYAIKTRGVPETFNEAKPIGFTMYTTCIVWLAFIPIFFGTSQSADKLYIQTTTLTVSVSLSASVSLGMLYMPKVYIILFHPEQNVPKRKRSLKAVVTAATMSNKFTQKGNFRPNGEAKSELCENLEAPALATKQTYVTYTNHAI

With `Cc1n[nH]cc1-c1nsc(Nc2ccccc2)n1` [Compound 1-1, 3-(3-methyl-1H-pyrazol-4-yl)-N-phenyl-1,2,4-thiadiazol-5-amine] as the compound, how does the EC50 read?
The EC50 was 1000 to 10000 nM.

For `CC(=O)n1cc(-c2nsc(Nc3ccccc3)n2)c(C)n1` [Compound 1-2, 1-(3-Methyl-4-(5-(phenylamino)-1,2,4-thiadiazol-3-yl)-1H-pyrazol-1-yl)ethanone], which EC50 is on record?
The EC50 was 1000 to 10000 nM.

For `Cc1n[nH]cc1-c1nsc(Nc2ccccc2Cl)n1` [Compound 1-3, N-(2-Chlorophenyl)-3-(3-methyl-1H-pyrazol-4-yl)-1,2,4-thiadiazol-5-amine], which EC50 is on record?
Its EC50 is 1000 to 10000 nM.

Which EC50 does the source give for `Cc1n[nH]cc1-c1nsc(Nc2ccccc2F)n1` [Compound 1-4, N-(2-Fluorophenyl)-3-(3-methyl-1H-pyrazol-4-yl)-1,2,4-thiadiazol-5-amine] here?
Its EC50 is 500 to 1000 nM.

For `Fc1sc(Nc2ccccn2)nc1-c1cn[nH]c1` [Compound 1-56, 5-Fluoro-4-(1H-pyrazol-4-yl)-N-(pyridin-2-yl)thiazol-2-amine], which EC50 is on record?
The EC50 was under 500 nM.

Tested on: not given
Experiment: not given
Conditions: not given

With `Cc1sc(Nc2cccc(F)n2)nc1-c1cnn(C(N)=O)c1` as the compound, how does the melting point read?
The melting point was 230 °C (dec.).

For `CC(=O)n1cc(-c2nsc(Nc3ccccc3)n2)c(C)n1` [Compound 1-2, 1-(3-Methyl-4-(5-(phenylamino)-1,2,4-thiadiazol-3-yl)-1H-pyrazol-1-yl)ethanone], which melting point is on record?
Its melting point is 204 to 208 °C.

With `Cc1n[nH]cc1-c1nsc(Nc2ccccc2Cl)n1` [Compound 1-3, N-(2-Chlorophenyl)-3-(3-methyl-1H-pyrazol-4-yl)-1,2,4-thiadiazol-5-amine] as the compound, how does the melting point read?
The melting point was 180 to 182 °C.

With `Cc1n[nH]cc1-c1nc(Nc2ccccn2)sc1C` [Compound 1-15, 5-Methyl-4-(3-methyl-1H-pyrazol-4-yl)-N-(pyridin-2-yl)thiazol-2-amine] as the compound, how does the melting point read?
Its melting point is 218 °C.

For `Cc1n[nH]cc1-c1csc(Nc2cc(F)ccc2F)n1` [Compound 1-17, N-(2,5-Difluorophenyl)-4-(3-methyl-1H-pyrazol-4-yl)thiazol-2-amine], which melting point is on record?
Its melting point is 196 to 199 °C.

Which melting point does the source give for `Cc1ccnc(Nc2nc(-c3cn[nH]c3)c(C)s2)c1` [Compound 1-19, 5-Methyl-N-(4-methylpyridin-2-yl)-4-(1H-pyrazol-4-yl)thiazol-2-amine] here?
Its melting point is 274 °C.

Which melting point does the source give for `Cc1sc(Nc2ncc(F)cc2F)nc1-c1cn[nH]c1` [Compound 1-20, N-(3,5-Difluoropyridin-2-yl)-5-methyl-4-(1H-pyrazol-4-yl)thiazol-2-amine] here?
The melting point was over 300 °C.

With `Cc1ccnc(Nc2nc(-c3c[nH]nc3C)cs2)c1` [Compound 1-21, 4-(3-Methyl-1H-pyrazol-4-yl)-N-(4-methylpyridin-2-yl)thiazol-2-amine] as the compound, how does the melting point read?
The melting point was 276 to 278 °C.

For `CCc1sc(Nc2ccccn2)nc1-c1cn[nH]c1` [Compound 1-22, 5-Ethyl-4-(1H-pyrazol-4-yl)-N-(pyridin-2-yl)thiazol-2-amine], which melting point is on record?
Its melting point is 243 to 246 °C.

With `Cc1cccc(Nc2nc(-c3c[nH]nc3C)cs2)n1` [Compound 1-23, 4-(3-Methyl-1H-pyrazol-4-yl)-N-(6-methylpyridin-2-yl)thiazol-2-amine] as the compound, how does the melting point read?
Its melting point is 295 °C (dec.).

With `Cc1sc(Nc2ccc(F)cn2)nc1-c1cn[nH]c1` [Compound 1-24, N-(5-Fluoropyridin-2-yl)-5-methyl-4-(1H-pyrazol-4-yl)thiazol-2-amine] as the compound, how does the melting point read?
Its melting point is 320 °C.

Which melting point does the source give for `Cc1sc(Nc2ccccn2)nc1-c1cnn(C(=O)C(C)C)c1` [Compound 1-26, 2-Methyl-1-(4-(5-methyl-2-(pyridin-2-ylamino)thiazol-4-yl)-1H-pyrazol-1-yl)propan-1-one] here?
The melting point was 168 °C.

Which melting point does the source give for `Cc1sc(Nc2ccccn2)nc1-c1cnn(C(=O)C2CCCCC2)c1` [Compound 1-28, Cyclohexyl(4-(5-methyl-2-(pyridin-2-ylamino)thiazol-4-yl)-1H-pyrazol-1-yl)methanone] here?
The melting point was 140 to 144 °C.

For `Cc1sc(NC2CCCCC2)nc1-c1cn[nH]c1` [Compound 1-29, N-Cyclohexyl-5-methyl-4-(1H-pyrazol-4-yl)thiazol-2-amine], which melting point is on record?
The melting point was 205 to 207 °C.

For `Cc1cccc(Nc2nc(-c3cnn(C(=O)C(C)C)c3)c(C)s2)n1` [Compound 1-30, 2-Methyl-1-(4-(5-methyl-2-(6-methylpyridin-2-ylamino)thiazol-4-yl)-1H-pyrazol-1-yl)propan-1-one], which melting point is on record?
Its melting point is 159 to 160 °C.

Which melting point does the source give for `Cc1sc(Nc2ccccn2)nc1-c1cnn(C(=O)N2CCCCC2)c1` [Compound 1-34, (4-(5-Methyl-2-(pyridin-2-ylamino)thiazol-4-yl)-1H-pyrazol-1-yl)(piperidin-1-yl)methanone] here?
The melting point was 137 to 138 °C.

Which melting point does the source give for `c1ccc(Nc2nc(-c3cn[nH]c3)ns2)nc1` [Compound 1-35, 3-(1H-Pyrazol-4-yl)-N-(pyridin-2-yl)-1,2,4-thiadiazol-5-amine] here?
The melting point was 300 °C (dec.).

With `CC(C)C(=O)n1cc(-c2nsc(Nc3ccccn3)n2)cn1` [Compound 1-36, 2-Methyl-1-(4-(5-(pyridin-2-ylamino)-1,2,4-thiadiazol-3-yl)-1H-pyrazol-1-yl)propan-1-one] as the compound, how does the melting point read?
Its melting point is 248 to 254 °C.

Which melting point does the source give for `Cc1sc(NC2CCCC2)nc1-c1cn[nH]c1` [Compound 1-37, N-Cyclopentyl-5-methyl-4-(1H-pyrazol-4-yl)thiazol-2-amine] here?
The melting point was 197 °C.

For `Cc1cccc(Nc2nc(-c3cn[nH]c3)ns2)n1` [Compound 1-38, N-(6-Methylpyridin-2-yl)-3-(1H-pyrazol-4-yl)-1,2,4-thiadiazol-5-amine], which melting point is on record?
Its melting point is 276 °C.

Which melting point does the source give for `Cc1sc(Nc2cnccn2)nc1-c1cn[nH]c1` [Compound 1-39, 5-Methyl-N-(pyrazin-2-yl)-4-(1H-pyrazol-4-yl)thiazol-2-amine] here?
Its melting point is 252 °C.

Which melting point does the source give for `Cc1cccc(Nc2nc(-c3c[nH]nc3C)ns2)n1` [Compound 1-40, 3-(3-Methyl-1H-pyrazol-4-yl)-N-(6-methylpyridin-2-yl)-1,2,4-thiadiazol-5-amine] here?
The melting point was over 300 °C.

With `Cc1n[nH]cc1-c1nsc(Nc2cccc(Cl)n2)n1` [Compound 1-41, N-(6-Chloropyridin-2-yl)-3-(3-methyl-1H-pyrazol-4-yl)-1,2,4-thiadiazol-5-amine] as the compound, how does the melting point read?
Its melting point is 285 °C (dec.).

For `Clc1cccc(Nc2nc(-c3cn[nH]c3)ns2)n1` [Compound 1-42, N-(6-Chloropyridin-2-yl)-3-(1H-pyrazol-4-yl)-1,2,4-thiadiazol-5-amine], which melting point is on record?
Its melting point is 317 to 319 °C.

For `Cc1n[nH]cc1-c1nsc(Nc2ncc(F)cc2F)n1` [Compound 1-44, N-(3,5-Difluoropyridin-2-yl)-3-(3-methyl-1H-pyrazol-4-yl)-1,2,4-thiadiazol-5-amine], which melting point is on record?
Its melting point is over 300 °C.

For `Cc1sc(Nc2ccccn2)nc1-c1cnn(S(C)(=O)=O)c1` [Compound 1-45, 5-Methyl-4-(1-(methylsulfonyl)-1H-pyrazol-4-yl)-N-(pyridin-2-yl)thiazol-2-amine], which melting point is on record?
The melting point was 193 °C.

With `CCc1cccc(Nc2nc(-c3cn[nH]c3)c(C)s2)n1` [Compound 1-48, N-(6-Ethylpyridin-2-yl)-5-methyl-4-(1H-pyrazol-4-yl)thiazol-2-amine] as the compound, how does the melting point read?
The melting point was 276 to 278 °C.

For `Cc1sc(Nc2ccccn2)nc1-c1cnn(C(=O)NC(C)C)c1` [Compound 1-50, N-Isopropyl-4-(5-methyl-2-(pyridin-2-ylamino)thiazol-4-yl)-1H-pyrazole-1-carboxamide], which melting point is on record?
Its melting point is 297 to 298 °C.

For `Cc1cccc(Nc2nc(-c3cn[nH]c3)c(Cl)s2)n1` [Compound 1-52, 5-Chloro-N-(6-methylpyridin-2-yl)-4-(1H-pyrazol-4-yl)thiazol-2-amine], which melting point is on record?
Its melting point is 278 to 282 °C.

With `OCc1sc(Nc2ccccn2)nc1-c1cn[nH]c1` [Compound 1-57, (4-(1H-Pyrazol-4-yl)-2-(pyridin-2-ylamino)thiazol-5-yl)methanol] as the compound, how does the melting point read?
The melting point was 250 °C (dec.).

For `Cc1sc(Nc2ccccn2)nc1-c1cnn(C(=O)NC2CC2)c1` [Compound 1-59, N-Cyclopropyl-4-(5-methyl-2-(pyridin-2-ylamino)thiazol-4-yl)-1H-pyrazole-1-carboxamide], which melting point is on record?
The melting point was 270 °C (dec.).

Which melting point does the source give for `Fc1ccc(F)c(Nc2cccc(-c3cn[nH]c3)n2)c1` [Compound 2-1, N-(2,5-Difluorophenyl)-6-(1H-pyrazol-4-yl)pyridin-2-amine] here?
Its melting point is 198 to 199 °C.
